In ChEMBL document CHEMBL1132981 (J Med Chem, 2000):
pKi: −log10 of the molar value. Values belong to the compound of their own block, whether it stands above or below them.

How the values were obtained:
[1] = biological target: Adenosine receptors; A2b & A3 (Homo sapiens) (UniProt P29275+P0DMS8); test: Selectivity ratio of hA3 to hA2B; format: protein assay
[2] = biological target: Adenosine receptors; A1 & A2b (Homo sapiens) (UniProt P30542+P29275); test: Selectivity ratio of hA1 to hA2B; format: protein assay
Adenosine receptor A2a [3] = biological target: Adenosine receptor A2a (Rattus norvegicus, UniProt P30543); test: biochemical
Description: Antagonist activity against adenosine A2A receptor in rat striatal membrane in presence of [3H]CGS-21680 radioligand.

Adenosine receptor A1 [4] = biological target: T1, Adenosine receptor A1 (Homo sapiens, UniProt P30542); test: biochemical
T1 sequence (P30542 whole entry): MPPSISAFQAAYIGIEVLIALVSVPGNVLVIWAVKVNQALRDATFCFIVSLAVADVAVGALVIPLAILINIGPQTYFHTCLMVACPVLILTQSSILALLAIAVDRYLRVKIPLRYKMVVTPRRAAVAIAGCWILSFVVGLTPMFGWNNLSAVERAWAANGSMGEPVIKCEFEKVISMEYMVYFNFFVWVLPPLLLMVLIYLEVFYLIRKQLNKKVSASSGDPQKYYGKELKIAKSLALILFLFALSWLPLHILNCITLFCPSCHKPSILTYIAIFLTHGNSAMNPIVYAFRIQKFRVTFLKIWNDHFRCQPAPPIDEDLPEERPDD
Description: Antagonist activity against recombinant human adenosine A1 receptor expressed in HEK293 cells in presence of [125I]IABA radioligand.

Adenosine receptor A2a [5] = biological target: Adenosine receptor A2a (Homo sapiens, UniProt P29274); test: biochemical
Description: Antagonist activity against recombinant human adenosine A2A receptor expressed in HEK293 cells in presence of [125I]iodo-ZM-241385 radioligand.

Adenosine receptor A2b = biological target: T2, Adenosine receptor A2b (Homo sapiens, UniProt P29275)
T2 sequence (P29275 whole entry): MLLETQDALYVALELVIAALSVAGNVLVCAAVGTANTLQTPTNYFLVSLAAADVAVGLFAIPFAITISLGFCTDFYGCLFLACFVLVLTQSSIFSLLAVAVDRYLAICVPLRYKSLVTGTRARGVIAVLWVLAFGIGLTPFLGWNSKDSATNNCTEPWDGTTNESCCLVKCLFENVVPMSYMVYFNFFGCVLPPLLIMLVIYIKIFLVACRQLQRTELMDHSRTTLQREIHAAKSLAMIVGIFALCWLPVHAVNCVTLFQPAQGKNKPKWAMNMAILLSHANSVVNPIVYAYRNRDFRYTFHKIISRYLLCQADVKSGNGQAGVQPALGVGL
Description: Antagonist activity against human A2B adenosine receptor expressed in HEK293 cells uisng [3H]ZM-241385 or [125I]-IABOPX

Adenosine receptor A1 [6] = biological target: T3, Adenosine receptor A1 (Rattus norvegicus, UniProt P25099); test: biochemical
T3 sequence (P25099 whole entry): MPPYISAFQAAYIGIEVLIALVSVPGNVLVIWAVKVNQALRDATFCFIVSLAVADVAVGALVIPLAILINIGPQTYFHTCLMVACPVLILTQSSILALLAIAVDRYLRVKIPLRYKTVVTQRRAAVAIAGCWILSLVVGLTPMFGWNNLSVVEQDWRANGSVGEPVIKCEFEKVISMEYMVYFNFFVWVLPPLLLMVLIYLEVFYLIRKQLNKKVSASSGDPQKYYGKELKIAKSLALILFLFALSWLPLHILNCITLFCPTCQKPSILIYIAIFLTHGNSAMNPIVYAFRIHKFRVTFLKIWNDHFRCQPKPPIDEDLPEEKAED
Description: Antagonist activity against adenosine A1 receptor in rat brain membrane in presence of [3H]R-PIA radioligand.

Adenosine receptor A3 [7] = biological target: T4, Adenosine receptor A3 (Homo sapiens, UniProt P0DMS8); test: biochemical
T4 sequence (P0DMS8 whole entry): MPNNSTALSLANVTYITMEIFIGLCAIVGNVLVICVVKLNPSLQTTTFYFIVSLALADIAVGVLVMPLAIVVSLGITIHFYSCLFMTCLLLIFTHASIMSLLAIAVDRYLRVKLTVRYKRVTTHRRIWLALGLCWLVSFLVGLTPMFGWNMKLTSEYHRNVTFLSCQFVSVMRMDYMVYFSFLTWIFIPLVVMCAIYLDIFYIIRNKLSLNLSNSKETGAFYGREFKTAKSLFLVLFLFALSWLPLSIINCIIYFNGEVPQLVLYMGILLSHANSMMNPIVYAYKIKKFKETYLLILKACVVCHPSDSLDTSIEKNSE
Description: Antagonist activity against human adenosine A3 receptor expressed in HEK cells in presence of [125]IAB-MECA or [125I]IABA radioligand.

[8] = biological target: T5, Adenosine receptor A1 (Rattus norvegicus) (UniProt P25099); test: Antagonist activity against adenosine A1 receptor in rat brain membrane using [3H]R-PIA at 10e-5 M; format: functional, cell membranes
T5 sequence (whole entry): T3 sequence (P25099 whole entry)

[9] = biological target: Adenosine receptor A2a (Rattus norvegicus) (UniProt P30543); test: Antagonist activity against adenosine A2A receptor in rat striatal membrane using [3H]CGS-21680 at 10e-5 M; format: functional, cell membranes; conditions: Striatum
[10] = biological target: T6, Adenosine receptor A2b (Homo sapiens) (UniProt P29275); format: functional, cell-based; conditions: HEK293, 10e-5 M
T6 sequence (whole entry): T2 sequence (P29275 whole entry)

[11] = biological target: Adenosine receptor A2a (Rattus norvegicus) (UniProt P30543); test: Antagonist activity against adenosine A2A receptor in rat striatal membrane using [3H]CGS-21680; format: functional, cell membranes; conditions: Striatum, concentration not given here
[12] = biological target: T7, Adenosine receptor A3 (Homo sapiens) (UniProt P0DMS8); format: functional, cell-based; conditions: HEK293, 10e-6 M
T7 sequence (whole entry): T4 sequence (P0DMS8 whole entry)

[13] = biological target: T5, Adenosine receptor A1 (Rattus norvegicus); test: Antagonist activity against A1 adenosine receptor in rat brain membrane using [3H]-R-PIA at 10e-5 M; format: functional, cell membranes
Adenosine receptor A3 [14] = biological target: T8, Adenosine receptor A3 (Rattus norvegicus, UniProt P28647); format: functional
T8 sequence (P28647 whole entry): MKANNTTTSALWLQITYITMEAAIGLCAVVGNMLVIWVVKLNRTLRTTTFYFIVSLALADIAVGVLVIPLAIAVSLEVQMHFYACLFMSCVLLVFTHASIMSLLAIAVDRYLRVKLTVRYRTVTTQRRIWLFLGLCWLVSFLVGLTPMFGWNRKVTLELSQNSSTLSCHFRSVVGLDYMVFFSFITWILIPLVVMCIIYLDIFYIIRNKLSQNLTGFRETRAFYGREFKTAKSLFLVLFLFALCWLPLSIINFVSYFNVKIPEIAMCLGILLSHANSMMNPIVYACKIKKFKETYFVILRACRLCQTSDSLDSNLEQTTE

Sequence of Adenosine receptor A2a (Rattus norvegicus) (P30543 whole entry): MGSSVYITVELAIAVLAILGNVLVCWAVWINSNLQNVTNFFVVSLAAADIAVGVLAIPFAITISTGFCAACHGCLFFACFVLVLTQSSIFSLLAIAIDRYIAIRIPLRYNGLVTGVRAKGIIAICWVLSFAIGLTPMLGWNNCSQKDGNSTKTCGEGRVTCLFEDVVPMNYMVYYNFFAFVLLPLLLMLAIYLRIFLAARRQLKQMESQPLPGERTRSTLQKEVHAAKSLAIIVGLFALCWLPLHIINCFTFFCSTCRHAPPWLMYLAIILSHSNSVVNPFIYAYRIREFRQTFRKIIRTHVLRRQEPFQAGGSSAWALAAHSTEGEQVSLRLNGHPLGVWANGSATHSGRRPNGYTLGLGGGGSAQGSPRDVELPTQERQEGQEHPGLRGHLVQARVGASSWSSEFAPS
Sequence of Adenosine receptor A2a (Homo sapiens, UniProt P29274) (P29274 whole entry): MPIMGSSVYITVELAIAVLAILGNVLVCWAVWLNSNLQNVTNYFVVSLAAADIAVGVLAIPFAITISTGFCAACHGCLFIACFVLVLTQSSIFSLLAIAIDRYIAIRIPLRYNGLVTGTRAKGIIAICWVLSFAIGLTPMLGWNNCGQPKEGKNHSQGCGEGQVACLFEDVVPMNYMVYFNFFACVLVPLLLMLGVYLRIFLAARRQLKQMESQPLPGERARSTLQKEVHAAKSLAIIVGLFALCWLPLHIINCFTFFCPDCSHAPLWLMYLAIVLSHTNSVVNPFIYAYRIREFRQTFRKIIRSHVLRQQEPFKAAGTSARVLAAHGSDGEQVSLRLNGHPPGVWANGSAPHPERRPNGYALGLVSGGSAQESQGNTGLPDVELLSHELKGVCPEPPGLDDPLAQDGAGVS
Sequence of Adenosine receptor A2a (Rattus norvegicus, UniProt P30543) (P30543 whole entry): as the sequence (P30543 whole entry) above

Structure (SMILES): O=C(O)/C=C/c1ccc(-c2nc3c(=O)n(CC4CCCCC4)c(=O)n(CC4CCCCC4)c3[nH]2)cc1
- Ratio [1]: 4.6
- Ratio [2]: 25
- pKi (Adenosine receptor A2a [3]): > 8.00

Structure (SMILES): CCCn1c(=O)c2nc(-c3ccc(OCC(=O)Nc4ccccc4C(C)=O)cc3)[nH]c2n(CCC)c1=O
- Ratio [1]: 23
- Ratio [2]: 120

Structure (SMILES): CCCn1c(=O)c2[nH]c(-c3ccc(OCC(=O)Nc4ccc(C(N)=O)cc4)cc3)nc2n(CCC)c1=O
- pKi (Adenosine receptor A1 [4]): 6.79
- pKi (Adenosine receptor A2a [5]): 7.41

Structure (SMILES): CCCn1c(=O)c2nc(-c3ccc(OCC(=O)N(Cc4ccccc4)Cc4ccccc4)cc3)[nH]c2n(CCC)c1=O
- Ratio [1]: 29
- Ratio [2]: 70

Structure (SMILES): C=CCn1c(=O)c2nc(-c3ccc(OCC(=O)O)cc3)[nH]c2n(CC=C)c1=O
- Ratio [1]: 5.8
- Ratio [2]: 12

Structure (SMILES): CCCn1c(=O)c2nc(-c3ccc(OCC(=O)NN4C(=O)C(C)=C(C)C4=O)cc3)[nH]c2n(CCC)c1=O
- Ratio [1]: 25
- Ratio [2]: 110

Structure (SMILES): CCCCn1c(=O)c2nc(-c3ccc(OCC(=O)O)cc3)[nH]c2n(CCCC)c1=O
- Ratio [1]: 1.9
- Ratio [2]: 3.1

Structure (SMILES): CCn1c(=O)c2[nH]c(-c3ccc(OCC(=O)Nc4ccc(CC(=O)NCCN)cc4)cc3)nc2n(CC)c1=O
- pKi (Adenosine receptor A2b): 7.82
- pKi (Adenosine receptor A2a [3]): 5.86
- pKi (Adenosine receptor A1 [6]): 7.19

Structure (SMILES): CCCn1c(=O)c2[nH]c(-c3ccc(OCC(=O)Nc4ccc(C(=O)O)cc4)cc3)nc2n(CCC)c1=O
- pKi (Adenosine receptor A3 [7]): < 5.30
- pKi (Adenosine receptor A1 [4]): 6.79
- pKi (Adenosine receptor A2a [5]): 7.41

Structure (SMILES): CCCn1c(=O)c2nc(-c3ccc(OCC(=O)Nc4cccc(C(C)=O)c4)cc3)[nH]c2n(CCC)c1=O
- Ratio [1]: 72
- Ratio [2]: 48

Structure (SMILES): CCCn1c(=O)c2nc(-c3ccc(/C=C/C(=O)O)cc3)[nH]c2n(CCC)c1=O
- pKi (Adenosine receptor A3 [7]): 7.52
- pKi (Adenosine receptor A2b): 7.22

Structure (SMILES): CC(=O)c1ccccc1NC(=O)COc1ccc(-c2nc3c(=O)n(Cc4ccccc4)c(=O)n(Cc4ccccc4)c3[nH]2)cc1
- Displacement [8]: < 10%
- Displacement [9]: < 10%
- Displacement [10]: < 10%

Structure (SMILES): CCCn1c(=O)c2nc(-c3ccc(OCC(=O)NC(c4ccccc4)c4ccccc4)cc3)[nH]c2n(CCC)c1=O
- inhibition [11]: 20%

Structure (SMILES): O=C(O)COc1ccc(-c2nc3c(=O)n(Cc4ccccc4)c(=O)n(Cc4ccccc4)c3[nH]2)cc1
- inhibition [11]: 25%

Structure (SMILES): CCn1c(=O)c2nc(-c3ccc(OCC(=O)Nc4ccc(C)cc4)cc3)[nH]c2n(CC)c1=O
- Displacement [12]: < 10%

Structure (SMILES): CC(=O)c1ccccc1NC(=O)/C=C/c1ccc(-c2nc3c(=O)n(CC4CCCCC4)c(=O)n(CC4CCCCC4)c3[nH]2)cc1
- Displacement [9]: < 10%
- Displacement [10]: < 10%
- Displacement [13]: < 10%

Structure (SMILES): CCCCn1c(=O)c2[nH]c(-c3ccc(OCC(=O)O)cc3)nc2n(CCCC)c1=O
- pKi (Adenosine receptor A3 [14]): 4.56

Structure (SMILES): CC(=O)c1ccccc1NC(=O)/C=C/c1ccc(-c2nc3c(=O)n(Cc4ccccc4)c(=O)n(Cc4ccccc4)c3[nH]2)cc1
- Displacement [9]: < 10%
- Displacement [10]: < 10%

Structure (SMILES): CCCn1c(=O)c2[nH]c(-c3ccc(OCC(=O)Nc4ccc(F)cc4)cc3)nc2n(CCC)c1=O
- pKi (Adenosine receptor A1 [6]): 6.57

Continued, values first:

- Ratio [1]: 170
- Ratio [2]: 110
Structure (SMILES): CCCn1c(=O)c2nc(-c3ccc(OCC(=O)Nc4ccc(C(C)=O)cc4)cc3)[nH]c2n(CCC)c1=O

- Ratio [1]: 91
- Ratio [2]: 38
Structure (SMILES): CCCn1c(=O)c2nc(-c3ccc(OCC(=O)Nc4ccc([N+](=O)[O-])cc4)cc3)[nH]c2n(CCC)c1=O

- Ratio [1]: 100
- Ratio [2]: 29
Structure (SMILES): CCCn1c(=O)c2nc(-c3ccc(OCC(=O)Nc4ccc(C(F)(F)F)cc4)cc3)[nH]c2n(CCC)c1=O

- Ratio [1]: 600
- Ratio [2]: 140
Structure (SMILES): CCCn1c(=O)c2nc(-c3ccc(OCC(=O)Nc4ccc(I)cc4)cc3)[nH]c2n(CCC)c1=O

- Ratio [1]: 176
- Ratio [2]: 8.1
Structure (SMILES): CCCn1c(=O)c2nc(-c3ccc(OCC(=O)Nc4ccc(F)cc4)cc3)[nH]c2n(CCC)c1=O

- Ratio [1]: > 300
- Ratio [2]: 10
Structure (SMILES): CCCn1c(=O)c2nc(-c3ccc(OCC(=O)Nc4ccc(C(=O)O)cc4)cc3)[nH]c2n(CCC)c1=O

- Ratio [1]: 980
- Ratio [2]: 31
Structure (SMILES): CCCn1c(=O)c2nc(-c3ccc(OCC(=O)Nc4ccc(Br)cc4)cc3)[nH]c2n(CCC)c1=O

- Ratio [1]: 92
- Ratio [2]: 57
Structure (SMILES): CCCn1c(=O)c2nc(-c3ccc(OCC(=O)Nc4ccc(C(=O)OC)cc4)cc3)[nH]c2n(CCC)c1=O

- Ratio [1]: 93
- Ratio [2]: 27
Structure (SMILES): CCCn1c(=O)c2nc(-c3ccc(OCC(=O)Nc4ccccc4)cc3)[nH]c2n(CCC)c1=O

- Ratio [1]: 760
- Ratio [2]: 20
Structure (SMILES): CCCn1c(=O)c2nc(-c3ccc(OCC(=O)Nc4ccc(Cl)cc4)cc3)[nH]c2n(CCC)c1=O
